In the assay the target is full-length human BTK (Homo sapiens (Human), UniProt Q06187). Description: BTK IC50 enzyme assay (microfluidic off-chip mobility shift kinase assay). It counts as biochemical. The conditions noted are these: incubated for 90 min. at 27 C; read-out: Time Dependent BTK Enzyme Assay IC50. In short, it runs like this: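 Read-out separates phosphorylated peptide product from substrate by charge/mass in a mobility shift format with full-length human BTK.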
full-length human BTK, sequence (Q06187 whole entry): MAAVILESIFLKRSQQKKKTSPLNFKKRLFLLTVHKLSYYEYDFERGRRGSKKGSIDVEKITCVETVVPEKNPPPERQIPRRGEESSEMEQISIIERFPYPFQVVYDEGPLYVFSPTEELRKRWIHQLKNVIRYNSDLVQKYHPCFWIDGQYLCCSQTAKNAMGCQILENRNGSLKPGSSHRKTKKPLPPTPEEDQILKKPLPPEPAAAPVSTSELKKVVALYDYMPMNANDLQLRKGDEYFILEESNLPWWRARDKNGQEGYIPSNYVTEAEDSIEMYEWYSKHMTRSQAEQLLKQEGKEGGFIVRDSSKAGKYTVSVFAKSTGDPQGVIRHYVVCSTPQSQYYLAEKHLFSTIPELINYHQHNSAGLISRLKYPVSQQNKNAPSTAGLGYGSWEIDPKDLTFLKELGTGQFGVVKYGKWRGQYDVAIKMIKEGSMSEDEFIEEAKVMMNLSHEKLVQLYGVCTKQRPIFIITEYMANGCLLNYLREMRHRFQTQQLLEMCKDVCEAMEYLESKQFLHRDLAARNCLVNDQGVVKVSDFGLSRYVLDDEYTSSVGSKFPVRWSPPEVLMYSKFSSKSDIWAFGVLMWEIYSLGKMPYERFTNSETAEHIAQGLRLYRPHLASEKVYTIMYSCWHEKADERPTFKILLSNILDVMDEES

For orientation: IC50 means the concentration that inhibits the measured activity by half. With `C=CC(=O)Nc1ccc(Oc2ccncc2-c2ccc(Oc3ccccc3)cc2)cc1` [A297, N-(4-((3-(4-phenoxyphenyl)pyridin-4-yl)oxy)phenyl)acrylamide], the IC50 is above 1000 nM. In the case of `C=CC(=O)Nc1ccc(-c2cnccc2Oc2ccc(Oc3ccccc3)cc2)cc1` [A281, N-(4-(4-(4-phenoxyphenoxy)pyridin-3-yl)phenyl)acrylamide], the 50% inhibitory concentration (IC50) was below 1000 nM. Regarding `Nc1cccc(Oc2ncnc(N)c2-c2ccc(Oc3ccccc3)cc2)c1` [A305, 6-(3-aminophenoxy)-5-(4-phenoxyphenyl)pyrimidin-4-amine], the IC50 was above 1000 nM. Regarding `Nc1ccc(Oc2ncnc(N)c2-c2ccc(Oc3ccccc3)cc2)cc1` [A303, 6-(4-aminophenoxy)-5-(4-phenoxyphenyl)pyrimidin-4-amine], the IC50 is above 1000 nM. With `C#CC(=O)N1CC[C@H](CNc2ncnc(N)c2-c2ccc(Oc3ccccc3)cc2)C1` [A61, (R)-1-(3-(((6-amino-5-(4-phenoxyphenyl)pyrimidin-4-yl)amino)methyl)pyrrolidin-1-yl)prop-2-yn-1-one], the IC50 is below 100 nM.

As for `C=CC(=O)N1CCC(CNc2ccnc(N)c2-c2ccc(Oc3ccccc3)cc2)CC1` [A76, 1-(4-(((2-amino-3-(4-phenoxyphenyl)pyridin-4-yl)amino)methyl)piperidin-1-yl)prop-2-en-1-one], the half-maximal inhibitory concentration (IC50) was below 1000 nM. Then `C=CC(=O)N1CC[C@@H](Oc2ncnc(N)c2-c2ccc(Oc3ccccc3)cc2)C1` [A19, (R)-1-(3-((6-amino-5-(4-phenoxyphenyl)pyrimidin-4-yl)oxy)pyrrolidin-1-yl)prop-2-en-1-one], with below 100 nM; and `N#CC1(C(=O)Nc2cccc(Oc3ncnc(N)c3-c3ccc(Oc4ccccc4)cc3)c2)CC1` [A329, N-(3-((6-amino-5-(4-phenoxyphenyl)pyrimidin-4-yl)oxy)phenyl)-1-cyanocyclopropanecarboxamide], with above 1000 nM; and `C=CC(=O)Nc1cccc(Oc2ncnc(N)c2-c2ccc(OCc3ccccc3)c(F)c2)c1` [A348, N-{3-[6-Amino-5-(4-benzyloxy-3-fluoro-phenyl)-pyrimidin-4-yloxy]-phenyl}-acrylamide], with below 100 nM.

For `C=CC(=O)Nc1cccc(Oc2ncnc(N)c2-c2cnn(Cc3ccccc3F)c2)c1` [A184, N-(3-((6-amino-5-(1-(2-fluorobenzyl)-1H-pyrazol-4-yl)pyrimidin-4-yl)oxy)phenyl)acrylamide], the IC50 is below 100 nM.

On to `C=CC(=O)Nc1cccc(-c2c(N)ncnc2Nc2ccc(Oc3ccccc3)cc2)c1` [A241, N-(3-(4-amino-6-((4-phenoxyphenyl)amino)pyrimidin-5-yl)phenyl)acrylamide], for which the IC50 was below 100 nM. The value for `CN(C)C/C=C/C(=O)Nc1cccc(-c2cnccc2Oc2ccc(Oc3ccccc3)cc2)c1` [A282, (E)-4-(dimethylamino)-N-(3-(4-(4-phenoxyphenoxy)pyridin-3-yl)phenyl)but-2-enamide] was below 100 nM; that for `C#CC(=O)N1C2CCC1CC(CNc1ncnc(N)c1-c1ccc(Oc3ccccc3)cc1)C2` (stereo not drawn) [A68, 1-(3-(((6-amino-5-(4-phenoxyphenyl)pyrimidin-4-yl)amino)methyl)-8-azabicyclo[3.2.1]octan-8-yl)prop-2-yn-1-one] was below 100 nM. As for `C=CC(=O)N1CCC2(CCN(c3ncnc(N)c3-c3ccc(Oc4ccccc4)cc3)CC2)C1` [A92, 1-(8-(6-amino-5-(4-phenoxyphenyl)pyrimidin-4-yl)-2,8-diazaspiro[4.5]decan-2-yl)prop-2-en-1-one], the IC50 was below 1000 nM. Then `Nc1ncnc(Oc2ccc(Oc3ccccc3)cc2)c1-c1cccc(NC(=O)/C=C/CN2CCOCC2)c1` [A274, (E)-N-(3-(4-amino-6-(4-phenoxyphenoxy)pyrimidin-5-yl)phenyl)-4-morpholinobut-2-enamide], with below 100 nM; and `C=CC(=O)Nc1cccc(Oc2ncnc(N)c2-c2cnn(Cc3ccc(OC)cc3)c2)c1` [A72, N-(3-((6-amino-5-(1-(4-methoxybenzyl)-1H-pyrazol-4-yl)pyrimidin-4-yl)oxy)phenyl)acrylamide], with below 100 nM; and `C=CC(=O)N1CCC(CNc2ncnc(N)c2-c2cnn(Cc3ccccc3)c2)CC1` [A33, 1-(4-(((6-amino-5-(1-benzyl-1H-pyrazol-4-yl)pyrimidin-4-yl)amino)methyl)piperidin-1-yl)prop-2-en-1-one], with above 1000 nM. Then `C=CC(=O)N1CCC(CNc2ncnc(N)c2-c2ccc(Oc3ccccc3)cc2)(C(=O)O)CC1` [A216, 1-acryloyl-4-(((6-amino-5-(4-phenoxyphenyl)pyrimidin-4-yl)amino)methyl)piperidine-4-carboxylic acid], with below 100 nM.

Consider `Nc1ncnc(Oc2ccc(Oc3ccccc3)cc2)c1-c1cccc(NC(=O)/C=C/CN2CCCC(F)(F)C2)c1` [A301, (E)-N-(3-(4-amino-6-(4-phenoxyphenoxy)pyrimidin-5-yl)phenyl)-4-(3,3-difluoropiperidin-1-yl)but-2-enamide], for which the IC50 is above 1000 nM. For the compound `C=CC(=O)Nc1ccc(F)c(Oc2ncnc(N)c2-c2ccc(Oc3ccccc3)nc2)c1` [A161, N-(3-((6-amino-5-(6-phenoxypyridin-3-yl)pyrimidin-4-yl)oxy)-4-fluorophenyl)acrylamide], the concentration for half-maximal inhibition (IC50) is below 100 nM.

Consider `CC=CC(=O)c1cccc(CNc2ncnc(N)c2-c2ccc(Oc3ccccc3)cc2)c1` [A142, 1-(3-((6-Amino-5-(4-phenoxyphenyl)-pyrimidin-4-ylamino)-methyl)-phenyl)-but-2-en-1-one], for which the IC50 is below 100 nM. Consider `Nc1ncnc(NCC2CCN(C(=O)C(O)CO)CC2)c1-c1ccc(Oc2ccccc2)cc1` (stereo not drawn) [A56, 1-(4-(((6-amino-5-(4-phenoxyphenyl)pyrimidin-4-yl)amino)methyl)piperidin-1-yl)-2,3-dihydroxypropan-1-one], for which the IC50 is above 1000 nM. In the case of `CN(C)C/C=C/C(=O)Nc1cccc(-c2c(N)ncnc2Oc2ccc(Oc3ccccc3)cc2)c1` [A248, (E)-N-(3-(4-amino-6-(4-phenoxyphenoxy)pyrimidin-5-yl)phenyl)-4-(dimethylamino)but-2-enamide], the IC50 is below 100 nM.

On to `C=CC(=O)N1CCO[C@@H](COc2ncnc(N)c2-c2ccc(Oc3ccc(C#N)cc3)cc2)C1` [A200, (R)-4-(4-(4-((4-acryloylmorpholin-2-yl)methoxy)-6-aminopyrimidin-5-yl)phenoxy)benzonitrile], for which the IC50 was below 1000 nM. As for `CCC(=O)NCc1ccc(-c2cnccc2Oc2ccc(Oc3ccccc3)cc2)cc1` [A324, N-(4-(4-(4-phenoxyphenoxy)pyridin-3-yl)benzyl)propionamide], the IC50 is above 1000 nM.

Take `C=CC(=O)N1CCO[C@@H](COc2ncnc(N)c2-c2cnn(Cc3ccccc3)c2)C1` [A192, (R)-1-(2-(((6-amino-5-(1-benzyl-1H-pyrazol-4-yl)pyrimidin-4-yl)oxy)methyl)morpholino)prop-2-en-1-one]: the IC50 is below 1000 nM. Consider `C=CC(=O)Nc1cccc(Nc2ncncc2-c2ccc(Oc3ccccc3)cc2)n1` [A167, N-(6-((5-(4-phenoxyphenyl)pyrimidin-4-yl)amino)pyridin-2-yl)acrylamide], for which the IC50 is below 100 nM. In the case of `C=CC(=O)Nc1cccc(Oc2ccncc2-c2ccc(Oc3ccccc3)cc2)c1` [A270, N-(3-((3-(4-phenoxyphenyl)pyridin-4-yl)oxy)phenyl)acrylamide], the IC50 is below 100 nM. As for `C=CC(=O)NCc1ccc(-c2cnccc2Oc2ccc(Oc3ccccc3)cc2)cc1` [A287, N-(4-(4-(4-phenoxyphenoxy)pyridin-3-yl)benzyl)acrylamide], the IC50 was below 1000 nM. The value for `C=CC(=O)N[C@H]1CC[C@@H](Nc2ncnc(N)c2-c2ccc(OCc3ccccc3)cc2)CC1` [A154] was above 1000 nM; that for `CC#CC(=O)N1CC2(CC(Nc3ncnc(N)c3-c3ccc(Oc4ccccc4)cc3)C2)C1` [A108, 1-(6-((6-amino-5-(4-phenoxyphenyl)pyrimidin-4-yl)amino)-2-azaspiro[3.3]heptan-2-yl)but-2-yn-1-one] was below 100 nM.

For `C=CC(=O)N1CCC(CNc2ncnc(N)c2-c2ccc(Cc3ccccc3)cc2)CC1` [A41, 1-(4-(((6-amino-5-(4-benzylphenyl)pyrimidin-4-yl)amino)methyl)piperidin-1-yl)prop-2-en-1-one], the concentration for half-maximal inhibition (IC50) is below 100 nM. Regarding `CC#CC(=O)N1CCC(COc2ncnc(N)c2-c2ccc(Oc3ccccc3)cc2)CC1` [A9, 1-(4-(((6-amino-5-(4-phenoxyphenyl)pyrimidin-4-yl)oxy)methyl)piperidin-1-yl)but-2-yn-1-one], the IC50 was below 100 nM. In the case of `C=CC(=O)N1CCCC(Nc2ncnc(N)c2-c2ccc(OCc3ccccc3)cc2)C1` (stereo not drawn) [A269, 1-(3-((6-amino-5-(4-(benzyloxy)phenyl)pyrimidin-4-yl)amino)piperidin-1-yl)prop-2-en-1-one], the IC50 is below 100 nM. On to `CCC(=O)N1CCC(CNc2ncnc(N)c2-c2ccc(Oc3ccccc3)cc2)CC1` [A333, 1-(4-(((6-amino-5-(4-phenoxyphenyl)pyrimidin-4-yl)amino)methyl)piperidin-1-yl)propan-1-one], for which the half-inhibitory concentration (IC50) was below 1000 nM. `CN(C)C/C=C/C(=O)N1CCCC(Nc2ncnc(N)c2-c2ccc(Oc3ccccc3)cc2)C1` (stereo not drawn) [A160, (E)-1-(3-((6-amino-5-(4-phenoxyphenyl)pyrimidin-4-yl)amino)piperidin-1-yl)-4-(dimethylamino)but-2-en-1-one]: the IC50 is below 1000 nM. With `CN(C)C/C=C/C(=O)Nc1ccc(Oc2ncnc(N)c2-c2ccc(Oc3ccccc3)cc2)cc1` [A290, (E)-N-(4-((6-amino-5-(4-phenoxyphenyl)pyrimidin-4-yl)oxy)phenyl)-4-(dimethylamino)but-2-enamide], the IC50 was below 1000 nM. In the case of `C=CC(=O)Nc1cccc(Oc2ncnc(N)c2-c2cnn(Cc3cccc(C(=O)OC)c3)c2)c1` [A206, methyl 3-((4-(4-(3-acrylamidophenoxy)-6-aminopyrimidin-5-yl)-1H-pyrazol-1-yl)methyl)benzoate], the IC50 was below 100 nM.

Turning to `C=CC(=O)N1CCC(CNc2ncnc(N)c2-c2ccc(Oc3ccncc3)cc2)CC1` [A97, 1-(4-(((6-amino-5-(4-(pyridin-4-yloxy)phenyl)pyrimidin-4-yl)amino)methyl)piperidin-1-yl)prop-2-en-1-one], the IC50 was below 1000 nM.
